# How the values were obtained:
# [1] = tested on: chondrosarcoma cells (SW1353); test: Alamar blue staining of chondrosarcoma; type: cell-based; conditions: Homo sapiens
# Method: The hyaluronan synthase activity (Prehm, P. and Schumacher, U., Biochem. Pharmacol. 2004, 68, 1401-1410), the cytotoxicity of the drugs (O'Brien, J. et al., Eur. J. Biochem. 2000, 267, 5421-5426), proteoglycan synthesis rate, hyaluronan (Prehm, P. J. Rheumatol., 2005, 32, 690-696) and proteoglycan (Bjornsson, S. Anal. Biochem. 1993, 210, 282-291) were determined as described. The effect of the prenylflavonoids on the MRP5 export rate was measured with fluorescein diacetate as described (Schulz, T., Schumacher, U., and Prehm, P., J Biol. Chem., 2007, 282, 20999-21004). The determination of the IC50 values on the phosphodiesterase 5 was performed according to the instructions of BPS Bioscience. The culture of bovine chondrocytes in alginate beads and of explants of bovine cartilage was described previously (Deiters, B. and Prehm, P. Arthritis Res. Ther., 2008, 10, R8; Prehm, P. J. Rheumatol. 2005, 32, 690-696). Osteoarthritic reactions were induced in chondrocytes growing in alginate beads by incubation with medium containing 10 ng/ml of II-17 for 6 days, and in cartilage explants with 10 ng/ml of II-17 and 5 ng/ml of II-1α. The supernatants were withdrawn and stored at −20° C. for later analysis. The explants were weighed and extracted with 1 ml of 4 M guanidinium-HCl for 72 hours at 4° C. The proteoglycan concentrations were determined in the extracts.
# Chondrosarcoma cells (SW1353 from the American Type Culture Collection) were grown in Dulbecco's medium supplemented with streptomycin/penicillin (100 units of each/ml), 10% foetal calf serum or in serum free Quantum medium supplemented with streptomycin/penicillin (100 units of each/ml), kanamycin (100 units/ml).
# Str/ort mice [2] = test: Health evaluation of treated Str/ort mice; type: in vivo, mouse; conditions: 50 mg/kg intraperitoneally, 18 weeks, vs vehicle
# Method: (§1) At 10-13 weeks of age, 21 male Str/ort mice (n=7/group) were assigned randomly to vehicle, hylin-betaine and xantho-betaine groups and were treated intraperitoneally 18 weeks with either vehicle (5% DMSO in 95% peanut oil), 50 mg/kg compound of Example 1 (“hylin-betaine”) in 5% DMSO and 95% peanut oil or 50 mg/kg compound of Example 2 (“xantho-betaine”) in 5% DMSO and 95% peanut oil.
# To assess the health status after hylin-betaine and xantho-betaine treatment, mice were monitored for their health status. The monitoring criteria were body surface temperature, body weight, gait, coat condition, skin tenting for dehydration, hunching, activity, breathing rate and general body condition. Mice were scored blind for each one of these criteria from 1-5 except for body weight and temperature.
# Str/ort mice [3] = test: Gait analysis (treadmill, Digigait) in Str/ort mice; type: in vivo, mouse
# Method: as §1
# Gait was monitored using a treadmill-based video system (DigigaitTM system) in three treatment groups of mice at three time point, week 1, week 9 and week 18 of treatment. The number of mice was 7, 7 and 5 in groups 1, 2 and 3, respectively.
# […] gait descriptors were used for the analyses. Thirty-four descriptors were obtained directly from the software of the system in the 4 limbs (LF: left front; RF: right front; LR: left rear; RR: right rear). All the others (143) were calculated indexes from gait measurements including swing, stance, brake, propel and stride times, stride length, frequency and coefficient of variation, paw area and paw angle and the variability of those two traits, the coefficient of variation of swing duration mid line distance, and minimum and maximum dAdT. The ratios of times were calculated in the 4 limbs: Brake, Propel, and Swing times relative to Stance and Stride times, Stance/Swing and Stance/Stride. In addition, the following additional indexes were considered:
# In order to investigate whether there were differences among groups for each descriptor at the three experimental dates, an ANOVA was performed using data corresponding to each descriptor and date. Bonferroni correction was applied to counteract the problem of multiple comparisons.
# A t-test analysis was also performed comparing only two groups at a time. In order to assess whether differences between both groups could be due to differences in gait change regarding the initial condition (at 2014/12/23), two sets of analyses were performed for data at 2015/02/18 and 2015/04/14, respectively by using Logistic Regression Analysis. The model included two independent variables: the initial value for each descriptor and the difference between the corresponding value at 2015/02/18 (or 2015/04/14) and the initial value. Bonferroni correction was also applied.
# Str/ort mice [4] = test: Histology and grading of articular cartilage lesions in Str/ort mice; type: in vivo, mouse
# Method: At 10-13 weeks of age, 21 male Str/ort mice (n=7/group) were assigned randomly to vehicle, hylin-betaine and xantho-betaine groups and were treated intraperitoneally 18 weeks with either vehicle (5% DMSO in 95% peanut oil), 50 mg/kg compound of Example 1 (“hylin-betaine”) in 5% DMSO and 95% peanut oil or 50 mg/kg compound of Example 2 (“xantho-betaine”) in 5% DMSO and 95% peanut oil. Dissected right knees were fixed in neutral buffered formalin, decalcified (Immunocal, Quartett, Berlin), wax-embedded and 6 μm coronal sections cut. Multiple sections (five/slide) from 120 μm intervals across the whole joint were stained with Tollidine blue (0.1% in 0.1 M acetate buffer, pH 5.6) and AC lesion severity graded. Sections from right vehicle, hylin-betaine and xantho-betaine treated Str/ort joints were stained with Safranin O. Sections were dewaxed, and AC lesion severity was scored in Str/ort mice by the methods of Chambers et al., (Chambers et al Expression of collagen and aggrecan genes in normal and osteoarthritic murine knee joints. Osteoarthritis and cartilage/OARS, Osteoarthritis Research Society. 2002; 10(1):51-61) consistent with an internationally-recognized system. Briefly, grade 0: normal; grade 1: rough surface or superficial zone lesions; grade 2: lesion down to the intermediate zone; grade 3: lesions down to tidemark or loss of AC; grades 4 and 5: AC loss across between 20% and 50% or 50-80% of condylar surface; grade 6: loss with subchondral bone exposure. Multiple slides (˜10), each containing five 6 μm sections sampled at 120 μm intervals spanning each entire joint were graded. Grading in each joint compartment (lateral/medial, tibia/femur) allowed for a maximum (most severe) grade to be assigned in each section, and used to produce an overall ‘average’ maximum grade in each group of mice, for the entire joint and for each compartment. In addition, a mean score was produced for each joint and for each compartment and these similarly used to produce an overall ‘average’ mean grade in each group of mice. Mean grades provide a measure of the ‘extent’ of AC lesion (representing relative volume) in each joint/compartment.
# bovine cartilage slices = test: Proteoglycan shedding from bovine cartilage slices; type: cell-based; conditions: Interleukin induced, one week of incubation; compared to unmodified xanthohumol
# Method: Hyaluronan overproduction causes massive shedding of proteoglycans from cartilage. Bovine cartilage slices were cultivated in organ culture and osteoarthritic reactions were induced by addition on Interleukin and increasing concentrations of xanthohumol-betaine. The amounts of proteoglycan were determined in the cartilage slices and in the medium after one week of incubation.
# [5] = 50 mg/kg intraperitoneally, 18 weeks
compound,measurement,setting,value
"COc1cc(O)c(CC=C(C)C)c(O)c1C(=O)/C=C/c1ccc(OC(=O)C[N+](C)(C)C)cc1.[Cl-] [Xantho-betaine, (E)-2-(4-(3-(2,4-dihydroxy-6-methoxy-3-(3-methylbut-2-en-1-yl)phenyl)-3-oxoprop-1-en-1-yl)phenoxy)-N,N,N-trimethyl-2-oxoethanaminium chloride]",IC50,[1],275 µM
same,"health status: weight, hunching, gait, activity, vocalisation and respiration scores, coat condition",Str/ort mice [2],does not alter
same,mice that refused to run (drop-out) during the gait studies,Str/ort mice [3]; [5],2 mice
same,percentage of drop-out regarding the total number of runs,Str/ort mice [3]; [5],13.3%
same,distribution of gait data (runs) by treatment group,Str/ort mice [3]; 2014 Dec. 23,4
same,distribution of gait data (runs) by treatment group,Str/ort mice [3]; 2015 Apr. 14,5
same,distribution of gait data (runs) by treatment group,Str/ort mice [3]; 2015 Feb. 18,4
same,effect on all gait descriptors,"Str/ort mice [3]; any time point, compared with vehicle group",no significant effect
same,effect on articular cartilage lesions / development of OA (overall),"Str/ort mice [4]; 50 mg/kg intraperitoneally, 18 weeks, vs vehicle",no such protection
same,maximum OA score,Str/ort mice [4]; vs vehicle treated Str/ort mice,not found to be statistically significant
same,reduction of shedding of proteoglycan into the medium,bovine cartilage slices,more effective

# From patent US20250017888A1, “COMPOUNDS FOR TREATING DISEASES ASSOCIATED WITH HYALURONAN OVERPRODUCTION” (THE ROYAL VETERINARY COLLEGE, priority 2021, published 2025)
